Measurements taken from publication doi:10.1101/2025.03.31.646301v1, “Discovery of Tankyrase scaffolding inhibitor specifically targeting the ARC4 peptide binding domain” (biorxiv, 2025).
Where two headings read alike, the source gives them in different places.

What was measured:
[1] = biological target: T1, TNKS2 ARC4 (Homo sapiens, UniProt Q9H2K2); assay: biochemical; set-up: FRET competition: inhibition of CFP-ARC domain binding to YFP-REAGDGEE peptide
T1 construct: ankyrin repeat cluster 4 domain; FRET: 6xHis-mCerulean (CFP) fusion; DSF, NMR, crystal: MBP and His tag cleaved by TEV, residues 487-649 printed for crystal; E. coli BL21(DE3)
T1 sequence (Q9H2K2 487-649): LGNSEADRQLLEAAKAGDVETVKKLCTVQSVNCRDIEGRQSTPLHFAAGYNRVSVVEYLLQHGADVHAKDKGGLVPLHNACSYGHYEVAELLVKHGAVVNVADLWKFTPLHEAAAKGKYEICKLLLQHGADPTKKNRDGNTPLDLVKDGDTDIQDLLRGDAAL
Protocol: The FRET assay for discovery of chemical probes targeting ARC and SAM domains of tankyrases was developed in a previous study.[52] The high-throughput screening of the EU-OPENSCREEN Pilot and Commercials Diversity libraries was performed at the Norwegian Centre for Molecular Biosciences and Medicine (NCMBM, formerly NCMM). For the primary screen, assay-ready plates containing library compound sufficient to reach a screening concentration of 30 µM were prepared on black shallow-well 384-microwell plates (Greiner bio-one small volume, high base, non-binding microplate black, 784900 or Fisherbrand™ 384-Well ShallowWell Polypropylene Microplates, 12-566-617, Fisher Scientific) using 30 nL of 10 mM DMSO compound stocks dispensed with an Echo 550 [compound left out] handler (Labcyte). Each screening plate also contained DMSO controls at equivalent volumes to compounds for positive, negative, and assay buffer blank controls, 16 wells per control type. Stock solutions of CFP-TNKS2 ARC4 and YFP-REAGDGEE or CFP-SAM(E897K) and YFP-SAM(Y920A) were combined and diluted in assay buffer (10 mM BTP pH 7, 3% weight/volume PEG 20000, 0.01% volume/volume Triton, 0.5 mM TCEP) to final concentrations of 100 nM and 200 nM or 150 and 300 nM, respectively. The positive control was prepared by addition of guanidine hydrochloride to the above assay buffer to a final concentration of 1M. A volume of 10 µL of these solutions was added to each well of the assay-ready plates using a BioTek MultiFlo FX dispenser (Agilent) equipped with 5 uL dispensing cassettes for the peristaltic pumps (screening solution and control) and a syringe pump (assay buffer blank). After [compound left out] handling, plates were incubated at RT for 30 minutes before reading fluorescence using a BioTek Synergy Neo2 plate reader (Agilent) with Gen5 software (version 3.02) at four wavelength combinations – 410/477, 410/527, 430/477, 430/527 – each with an excitation bandwidth of 20 nm and an emission bandwidth of 10 nm; a gain setting of 135; a “Normal” read speed with 10 msec delay after plate movement, 50 measurements per data point, low lamp energy, and a “Standard” dynamic range (0 to 99,999); and a read height of 4.5 mm. A SAR investigation was conducted with purchased and synthesized analogues of 1 through FRET-based potency measurements and DSF assay with TNKS2 ARC4 (Table 2, Table S2). All the compounds commercially acquired underwent quality control. […] Changes to the length of the aliphatic chain at R[3] greatly impacts both potency and protein stabilization. […] The diethylamino-based substituent at R[3] […] Compounds 25 and 26 further indicate that the presence of tertiary amine at R[3] is not necessary to achieve binding.

[2] = biological target: T1, TNKS2 ARC4; set-up: DSF thermal shift of TNKS2 ARC4, stabilization over DMSO control; details: binder
Text: Given the notable stabilization of the pyrrolone-based compounds from the Commercials Diversity collection, we decided to focus on their common scaffold for compound optimization. Pyrrolone is indeed a versatile moiety that is largely employed for the design of compounds with a variety of biological effects.[55] The nine primary hits were acquired from commercial suppliers, they underwent quality control, additional DSF validation and determination of potency through FRET-based IC50 measurements (Table 1). All the tested compounds include a benzodioxane moiety (R[1]), a [compound left out] group with substitutions in the para position (R[2]), and an R[3] group with an aliphatic character and a tertiary amine. […] In addition, all molecules, except for 7, have IC50 values below 100 µM. Among the nine molecules, 1 performed the best in terms of stabilization of TNKS2 ARC4 and potency. […] In the same position, the presence of a hydrophobic methyl group (3, 4), other halogen substituents (5) and alkoxy groups (6–9) is also tolerated, even if not optimal. […] A SAR investigation was conducted with purchased and synthesized analogues of 1 through FRET-based potency measurements and DSF assay with TNKS2 ARC4 (Table 2, Table S2). All the compounds commercially acquired underwent quality control. […] Changes to the length of the aliphatic chain at R[3] greatly impacts both potency and protein stabilization. […] The diethylamino-based substituent at R[3] […] Compounds 25 and 26 further indicate that the presence of tertiary amine at R[3] is not necessary to achieve binding. […] 5 Figure S2. DSF assay results for validation of primary hits identified in the EU-OPENSCREEN Commercials Diversity Library. (A) and (B) show DSF assay validation measurements of TNKS2 ARC4 with primary hits from the Commercial Diversity Library. Compounds are tested at 100 μM. They are named after their EU-OPENSCREEN identity codes and the identities are available for consultation on ECBD. 1,2 (A) and (B) show results from two independent experiments. For each experiment, each compound was tested with a single measurement, while controls (TNKS2 ARC4 with 100 μM optimized peptide, TNKS2 ARC4 with 100 μM DMSO) are studied in at least four replicates and errors are shown. Moreover, stabilization over the control (TNKS2 ARC4 with DMSO) is indicated (ΔTm °C). […] It was not possible to measure the melting curve of TNKS2 ARC4 in presence of EOS21552, EOS54043, EOS54043.

Row | IC50 [1] [µM] | ΔTm ± SD (°C) [2] [°C] | IC50 ([1]; inhibitor) [µM] | SMILES
1 | 302 | 0.80 ± 0.16 | – | O=C(C1=C(O)C(=O)N(CCCN2CCNCC2)C1c1cccc(O)c1)c1ccc2c(c1)OCCO2 (centres unmarked) [S2]
2 | 23 | 0.45 ± 0.25 | – | O=C(C1=C(O)C(=O)N(Cc2ccccc2)C1c1cccc(O)c1)c1ccc2c(c1)OCCO2 (centres unmarked) [compound 36, 36]
3 | – | 0.47 ± 0.31 | 360 | COCCCN1C(=O)C(O)=C(C(=O)c2ccc3c(c2)OCCO3)C1c1ccccc1 (centres unmarked) [compound 40, 40]
4 | 114 | 1.61 ± 0.37 | – | O=C(C1=C(O)C(=O)N(CCCN2CCOCC2)C1c1ccc(F)cc1)c1ccc2c(c1)OCCO2 (centres unmarked) [compound 43, 43]
5 | 121 | 1.31 ± 0.17 | – | N=C(N)NCCCN1C(=O)C(O)=C(C(=O)c2ccc3c(c2)OCCO3)C1c1cccc(O)c1 (centres unmarked) [S5]
6 | – | 1.05 ± 0.36 | 255 | CCN(CC)CCN1C(=O)C(O)=C(C(=O)c2ccc3c(c2)OCCO3)C1c1ccccc1 (centres unmarked) [compound 39, 39]
7 | 305 | 0.82 ± 0.38 | – | COCCN1C(=O)C(O)=C(C(=O)c2ccc3c(c2)OCCO3)C1c1cccc(O)c1 (centres unmarked) [compound 35, 35]
8 | – | 2.32 ± 0.33 | 78 | COc1cc(C2C(C(=O)c3ccc4c(c3)OCCO4)=C(O)C(=O)N2CCCN2CCOCC2)ccc1O (centres unmarked) [compound 45, 45]
9 | 133 | 1.20 ± 0.19 | – | N=C(N)NCCCN1C(=O)C(O)=C(C(=O)c2ccc3c(c2)OCCO3)C1c1ccccc1 (centres unmarked) [S3]
10 | – | 0.67 ± 0.28 | 493 | Cc1ccc(C2C(C(=O)c3ccc4c(c3)OCCO4)=C(O)C(=O)N2CCN(C)C)cc1 (centres unmarked) [compound 38, 38]
11 | 101 | 2.26 ± 0.34 | – | O=C(C1=C(O)C(=O)N(CCCN2CCOCC2)C1c1ccccc1)c1ccc2c(c1)OCCO2 (centres unmarked) [compound 42, 42]

Further lines, the molecule ahead of its results:

Row | SMILES | IC50 [1] [µM] | ΔTm ± SD (°C) [2] [°C] | IC50 ([1]; inhibitor) [µM]
12 | O=C(C1=C(O)C(=O)N(Cc2ccncc2)C1c1ccncc1)c1ccc2c(c1)OCCO2 (centres unmarked) [compound 44, 44] | > 1000 | 0.21 ± 0.26 | –
13 | COc1cccc(C(=O)C2=C(O)C(=O)N(CCCN3CCOCC3)C2c2ccccc2)c1 (centres unmarked) [compound 32, 32] | > 1000 | 0.23 ± 0.25 | –
14 | COc1ccc(C(=O)C2=C(O)C(=O)N(CCCN3CCOCC3)C2c2ccccc2)cc1OC (centres unmarked) [compound 29, 29] | > 1000 | 0.14 ± 0.25 | –
15 | O=C(C1=C(O)C(=O)N(CCc2ccccc2)C1c1ccccc1)c1ccc2c(c1)OCCO2 (centres unmarked) [compound 41, 41] | – | 0.91 ± 0.31 | 65
16 | CN(C)CCCN1C(=O)C(O)=C(C(=O)c2ccc3c(c2)oc(=O)n3C)C1c1ccccc1 (centres unmarked) [compound 27, 27] | – | -0.03 ± 0.11 | > 1000
17 | COc1ccc(C(=O)C2=C(O)C(=O)N(CCCN3CCOCC3)C2c2ccc(C)cc2)cc1OC (centres unmarked) [compound 30, 30] | > 1000 | 0.12 ± 0.25 | –
18 | CCN(CC)CCCN1C(=O)C(O)=C(C(=O)c2ccc(OC)cc2)C1c1ccccc1 (centres unmarked) [compound 31, 31] | 136 | 1.46 ± 0.52 | –
19 | Cc1ccccc1COc1ccc(C(=O)C2=C(O)C(=O)N(CCCN(C)C)C2c2cccc(O)c2)cc1 (centres unmarked) [compound 28, 28] | – | -0.20 ± 0.22 | > 1000
20 | Cc1ccc(C2C(C(=O)c3ccc4c(c3)OCCO4)=C(O)C(=O)N2Cc2ccccc2)cc1 (centres unmarked) [compound 37, 37] | 71 | 0.51 ± 0.31 | –
21 | COc1cccc(C(=O)C2=C(O)C(=O)N(CCCN3CCOCC3)C2c2ccc(C)cc2)c1 (centres unmarked) [compound 33, 33] | > 1000 | 0.36 ± 0.33 | –
22 | Cc1cc(C(=O)C2=C(O)C(=O)N(CCCN(C)C)C2c2ccc(O)cc2)ccc1OC(C)C (centres unmarked) [compound 34, 34] | > 1000 | -0.08 ± 0.41 | –
